The subject of assay [1] is mature osteoclasts. The assay is described as follows: Bone resorption assay (OsteoLyse Assay Kit) with mature osteoclasts. It counts as cell-based, mouse. The conditions noted are these: 8 μM (IC50 concentration), mature osteoclasts treated for 3 days, normalized by cellular DNA. As to the method:
The quantitative measurement of in vitro osteoclast-mediated degradation of human bone collagen was carried out using the OsteoLyse™ Assay Kit (Lonza Walkersville, Inc. Walkersville, Md., USA) according to manufacturer's instructions.
This assay allows a direct measurement of the release of […] into the osteoclast resorption lacuna (Delaisse et al., 2003).
Briefly, 2×10^4 mouse bone marrow cells prepared above were dispensed in 96-well OsteoLyse™ cell culture plate coated with europium-conjugated collagen.
The cells were incubated in 0.1 mL of complete α-MEM per well in the presence of M-CSF (60 ng/mL) and RANKL (150 ng/mL) in the conditions of 37° C. and 5% CO2 for 6 days. Thereafter, the medium was exchanged on day 3 of the dispensing.
In order to measure the ability to inhibit the mature osteoclastic functions, the medium was exchanged on day 6, and osmundacetone was added at an IC50 concentration obtained from TRAP analysis.
After the mature osteoclasts were treated with osmundacetone for 3 days, 10 μL of a supernatant of the cell culture was taken, and placed in a second 96-well analysis plate containing fluorophore-Releasing reagent. The degraded collagen was measured using a time-resolved fluorescence fluorimeter, Wallac Victor (Perkin Elmer, Waltham, Mass., USA). […]

For assay [2], the system named is RUNX2 in MC3T3-E1 cells. Nature of the assay: Western blot, RUNX2 expression. In kind it is cell-based, mouse. Conditions: 50 μM. As to the method: In order to analyze the expression of osteoblast differentiation markers during a differentiation procedure, 3×10^5 MC3T3-E1 cells were dispensed in a 100 mm culture plate together with 10 mL of complete α-MEM containing ascorbic acid (50 μg/mL) and 10 mM R-glycerophosphate per well. Here, 50 μM osmundacetone was added or not added, and the cells were incubated at 37 […] in a 5% CO2 incubator for 21 days while the medium was exchanged every 3-4 days.
The negative control cells were cultured without differentiation factors, and the osteoblasts and a culture thereof were dispensed, and then collected on day 7, 14, or 21.
The cells were lysed using RIPA buffer, and then the expression of runt-related transcription factor 2 (RUNX2) was analyzed. Also for analysis of OCN secretion, the culture was collected, and normalized by cellular DNA.
Proteins were analyzed using SDS-PAGE on 12.5% […] gels, and transferred on polyvinylidene difluoride (PVDF) membrane through electrophoresis.
The membrane was blocked using non-fat milk, and examined using anti-RUNX2 (D1H7) rabbit monoclonal antibody (#8486, Cell Signaling Technology, MA, USA) or anti-OCN (FL-95) antibody (# sc-30045, Santa Cruz Biotechnology, TX, USA). Anti-actin antibody (# M177-3, MEDICAL & BIOLOGICAL LABORATORIES CO., LTD., Nagoya, Aichi, Japan) was used as an internal reference.
Protein bands on the blot were visualized using an enhanced chemiluminescent detection kit (# EBP-1073, PicoEPD Western Reagent, ELPIS-BIOTECH, Daejeon, Korea).

On to `CC(=O)/C=C/c1ccc(O)c(O)c1` [Osmundacetone, (3E)-4-(3,4-dihydroxyphenyl)-3-buten-2-one], for which, in assay [1], the “bone resorption function of mature osteoclasts, % that of non-treated osteoclasts” value is recorded as 58.7±13%. Further, the “RUNX2 expression level, increase compared with non-treated positive control group” value amounted to 1.1 times in assay [2] (day 7), 1.1 times in assay [2] (day 14) and 2.1 times in assay [2] (day 21).

For the origin of these results see patent US20200129450A1, “COMPOSITION COMPRISING OSMUNDACETONE OR PHARMACEUTICALLY ACCEPTABLE SALT THEREOF FOR PREVENTING OR TREATING BONE DISEASE” (KORPHARM CO., LTD., priority 2016, published 2020).
